Data on 5 compounds can be found in patent publication US20240287138A1, “CYCLIC PEPTIDES FOR INHIBITING TNF RECEPTOR 1 ACTIVITY” (Merck Sharp & Dohme LLC, priority 2023, published 2024).

Molecules are shown by their SMILES. Numbered stars: 1 amine (or outer) side, 2 acyl side, 3 side chain; on linkers, the order of the positions; unused ones are H or OH. Bridge positions count the residues as written; N and C are the ends. Square brackets hold non-standard residues; d marks the D form. Peptide text beside a SMILES is read from it. Trp(βS-Me,7-OMe) = COc1cccc2c([C@H](C)[C@H](N)C(=O)O)c[nH]c12; cBu(1-CO,cis-3-CH2NH) = O=C([C@H]1C[C@@H](CN[*:1])C1)[*:2]; Trp(7-Cl) = N[C@@H](Cc1c[nH]c2c(Cl)cccc12)C(=O)O; Phe(4-CONH2) = NC(=O)c1ccc(C[C@H](N)C(=O)O)cc1; Phe(4-COOH) = N[C@@H](Cc1ccc(C(=O)O)cc1)C(=O)O; Trp(7-F) = N[C@@H](Cc1c[nH]c2c(F)cccc12)C(=O)O; X2 = C[C@@H]1CC[C@@H](C(=O)[*:2])N([*:1])C1; Pip(5R-OH) = O=C(O)[C@@H]1CC[C@@H](O)CN1; X13 = O=C([C@H]1CC[C@@H](N[*:1])C1)[*:2]; X1 = O=C([C@@H]1CC[C@H](N[*:1])C1)[*:2]; dPro(4,4-F2) = O=C(O)[C@H]1CC(F)(F)CN1; Pip(4-aza) = O=C(O)[C@@H]1CNCCN1; hPhe = N[C@@H](CCc1ccccc1)C(=O)O; 4Pal = N[C@@H](Cc1ccncc1)C(=O)O; NMeE = CN[C@@H](CCC(=O)O)C(=O)O; αMeS = C[C@](N)(CO)C(=O)O; NMeA = CN[C@@H](C)C(=O)O; Nle = CCCC[C@H](N)C(=O)O; Sar = CNCC(=O)O

In the experiment the target is T1, TNFα-induced NF-κB signal transduction pathway (TNFR1 signaling) in THP-1 cells (Homo sapiens, UniProt P19438).
T1 sequence (P19438 30-455): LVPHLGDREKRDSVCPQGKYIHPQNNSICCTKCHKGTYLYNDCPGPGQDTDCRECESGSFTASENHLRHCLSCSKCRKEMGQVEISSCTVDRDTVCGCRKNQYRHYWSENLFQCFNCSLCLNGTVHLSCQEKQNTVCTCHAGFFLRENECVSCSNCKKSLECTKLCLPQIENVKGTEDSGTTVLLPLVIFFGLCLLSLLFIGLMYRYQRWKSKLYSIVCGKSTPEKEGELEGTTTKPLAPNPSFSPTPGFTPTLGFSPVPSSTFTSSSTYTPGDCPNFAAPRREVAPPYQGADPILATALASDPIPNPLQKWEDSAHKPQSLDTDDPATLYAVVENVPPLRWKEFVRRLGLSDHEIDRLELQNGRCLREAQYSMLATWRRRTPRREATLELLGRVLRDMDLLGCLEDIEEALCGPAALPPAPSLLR
In words: THP-1 Lucia NF-κB reporter cell assay, inhibition of TNFα-induced NF-κB signaling. It is filed as cell-based. Particulars: THP-1 NF-κB Lucia reporter cells, 10 ng/mL TNFα, 16-18 h, secreted luciferase; read-out: THP-1 IC50. In outline: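 Inhibition of TNFR1-driven NF-κB activation was measured as luminescence of secreted reporter luciferase following overnight (16-18 h) stimulation with 10 ng/mL TNFα.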
As a reminder, the IC50 is the midpoint of a concentration-inhibition curve. For the compound `C[C@H]1C(=O)N[C@@H](CC(N)=O)C(=O)N[C@@H](Cc2ccncc2)C(=O)N[C@@H](Cc2c[nH]c3ccccc23)C(=O)N[C@@](C)(CO)C(=O)N[C@@H](Cc2ccc(C(=O)O)cc2)C(=O)N[C@@H](Cc2ccc(O)cc2)C(=O)N(C)CC(=O)N[C@@H](Cc2c[nH]c3ccccc23)C(=O)N[C@H](C(N)=O)CSCC(=O)N[C@@H](CCc2ccccc2)C(=O)N[C@@H](Cc2ccc(O)cc2)C(=O)N[C@@H](CO)C(=O)N[C@@H](Cc2c[nH]c3c(F)cccc23)C(=O)N1C` [SEQ ID NO. 263] ({CH2CO}-[hPhe]YS[Trp(7-F)][NMeA]N[4Pal]W[αMeS][Phe(4-COOH)]Y[Sar]WC-NH2; thioether N-14), the IC50 came to 4.7 nM.
Regarding `CCCC[C@@H]1NC(=O)[C@@H]2CC[C@@H](C2)NC(=O)[C@H]([C@@H](C)c2c[nH]c3c(OC)cccc23)NC(=O)CN(C)C(=O)[C@H](Cc2ccc(O)cc2)NC(=O)[C@H](Cc2ccc(C(=O)O)cc2)NC(=O)[C@](C)(CO)NC(=O)[C@H](Cc2c[nH]c3c(Cl)cccc23)NC(=O)[C@H](Cc2ccncc2)NC(=O)[C@H](CC(N)=O)NC(=O)[C@H]2CC(F)(F)CN2C(=O)[C@H](Cc2c[nH]c3ccccc23)NC(=O)[C@@H]2CNCCN2C(=O)[C@H](Cc2ccncc2)NC1=O` [SEQ ID NO. 266] (cyclo([4Pal][Trp(7-Cl)][αMeS][Phe(4-COOH)]Y[Sar][Trp(βS-Me,7-OMe)][X1][Nle][4Pal][Pip(4-aza)]W[dPro(4,4-F2)]N)), the IC50 stood at 0.9 nM.
`CCCC[C@@H]1NC(=O)[C@H]2CC[C@H](C2)NC(=O)[C@H]([C@@H](C)c2c[nH]c3c(OC)cccc23)NC(=O)CN(C)C(=O)[C@H](Cc2ccc(O)cc2)NC(=O)[C@H](Cc2ccc(C(N)=O)cc2)NC(=O)[C@](C)(CO)NC(=O)[C@H](Cc2c[nH]c3c(Cl)cccc23)NC(=O)[C@H](Cc2ccc(C(=O)O)cc2)NC(=O)[C@H](CC(N)=O)NC(=O)[C@H](CCC(=O)O)N(C)C(=O)[C@H](Cc2c[nH]c3ccccc23)NC(=O)[C@@H]2CC[C@@H](O)CN2C(=O)[C@H](Cc2ccncc2)NC1=O` [SEQ ID NO. 267] (cyclo([4Pal][Pip(5R-OH)]W[NMeE]N[Phe(4-COOH)][Trp(7-Cl)][αMeS][Phe(4-CONH2)]Y[Sar][Trp(βS-Me,7-OMe)][X13][Nle])): the half-maximal inhibitory concentration (IC50) came out at 1.7 nM.
Then `CCCC[C@@H]1NC(=O)[C@H]2C[C@@H](CNC(=O)[C@H]([C@@H](C)c3c[nH]c4c(OC)cccc34)NC(=O)CN(C)C(=O)[C@H](Cc3ccc(O)cc3)NC(=O)[C@H](Cc3ccc(C(=O)O)cc3)NC(=O)[C@](C)(CO)NC(=O)[C@H](Cc3c[nH]c4c(Cl)cccc34)NC(=O)[C@H](Cc3ccncc3)NC(=O)[C@H](CC(N)=O)NC(=O)[C@H](CCC(=O)O)N(C)C(=O)[C@H](Cc3c[nH]c4ccccc34)NC(=O)[C@@H]3CNCCN3C(=O)[C@H](Cc3ccncc3)NC1=O)C2` [SEQ ID NO. 268] (cyclo([4Pal][Trp(7-Cl)][αMeS][Phe(4-COOH)]Y[Sar][Trp(βS-Me,7-OMe)][cBu(1-CO,cis-3-CH2NH)][Nle][4Pal][Pip(4-aza)]W[NMeE]N)), with 2 nM.
To `CCCC[C@@H]1NC(=O)CSC[C@@H](C(N)=O)NC(=O)[C@H]([C@@H](C)c2c[nH]c3c(OC)cccc23)NC(=O)CN(C)C(=O)[C@H](Cc2ccc(O)cc2)NC(=O)[C@H](Cc2ccc(C(=O)O)cc2)NC(=O)[C@](C)(CO)NC(=O)[C@H](Cc2c[nH]c3c(Cl)cccc23)NC(=O)[C@H](Cc2ccncc2)NC(=O)[C@H](CC(N)=O)NC(=O)[C@H](CCC(=O)O)N(C)C(=O)[C@H](Cc2c[nH]c3ccccc23)NC(=O)[C@@H]2CC[C@@H](C)CN2C(=O)[C@H](Cc2ccncc2)NC1=O` [SEQ ID NO. 272] ({CH2CO}-[Nle][4Pal][X2]W[NMeE]N[4Pal][Trp(7-Cl)][αMeS][Phe(4-COOH)]Y[Sar][Trp(βS-Me,7-OMe)]C-NH2; thioether N-14) belongs 2.6 nM.
